Data taken from US11583570B2, “Use of autoinducer-related pathway in inducing apoptosis and anti-infective therapy” (TSINGHUA UNIVERSITY, priority 2017, dated 2023).

How the values were obtained:
[1] = system: lymphoblast H9; assay: Annexin V/PI apoptosis detection, H9; format: cell-based, human
Procedure: (§1) Cell apoptosis was detected with Annexin V/PI apoptosis detection Kit. Briefly, cells were stimulated with HSLs or left untreated. 6 hrs later, cells were collected and stained with Annexin VFITC and PI for 15 min at RT, then the apoptotic effect was measured by flow cytometry. OT-I or OT-II splenocytes were pulsed with specific peptides or PMA and ionomycin mixture with or without HSLs or TNF α plus cycloheximide. 24 hrs later, cells and supernatants were collected separately. For OT-I activation, cells were stained with CD69 and CD8. For OT-II activation, cells were stained with CD69 and CD4. Cell activation was measured by flow cytometry. All supernatants were detected for IL-2 secretion by ELISA.

[2] = system: ZAP70; assay: ZAP70 phosphorylation in live cells recovered from T cell culture; format: cell-based; conditions: live cells recovered from the culture
[3] = system: EGFR; assay: MSFQ, EGFR dimerization; format: cell-based, human; conditions: in comparison with the carrier treatment
Procedure: Single molecule photo-bleaching step counting: 0.5 μg TNFR1(1-293)-peGFP-N1 plasmid or 0.5 μg EGFR-peGFP-N1 plasmid was transfected into HeLa cells and cultured for 5-6 hrs. Then the cells were stimulated with HSLs, TNF α, or left untreated, and washed twice with PBS and fixed with 4% paraformaldehyde before imaging. GFP was excited at 488 nm with a laser power of 5 mW measured after the laser passing through the objective. The collected fluorescent signal was gated by a band-pass filter HQ 525/50 (Chroma Technology). The EM gain of the EMCCD camera was set at 300. Movies of 400 frames were acquired for each sample at a full-frame rate of 10 Hz. For imaging analysis, the background fluorescence was firstly subtracted from the movie acquired from the fixed cells using the rolling ball method in Image J software, and regions of interest on movies were selected manually according to the outline of cells. To analyze the bleaching steps, the fluorescence time courses of each fluorescent spots were first constructed by Image J plugin and bleaching steps were then counted manually.

[4] = Lipid binding assay; format: physicochemical; conditions: DOPC, DPPC, PE, cholesterol, sphingomyelin individually or in combination
Procedure: 1 mg/ml of each lipid species in chloroform was coated on round glass slides by evaporation.
Then the glass slices were incubated with 100 μM 3OC12 HSL in DMSO in PBS at 37° C. After the incubation, the glass slices were washed slightly with PBS for 4-5 times and lipids were dissolved with DMSO. The amount of 3OC12 HSL in each sample was measured by QS bioassay as described above.

[5] = system: TNFR1; assay: Lipid raft isolation, TNFR1 in detergent resistant domains; format: cell-based; conditions: human and mouse T cells
[6] = system: Fcγ RIIA; assay: Quantum dot-based single particle tracking, Fcγ RIIA in Cos-1 cells; format: cell-based, human
Procedure: (§2) To track individual TNFR1 on the cell membrane, anti-TNFR1 IgG (was first papain digested to yield a Fab fragment. The Fab was then conjugated with biotin through the unique —SH at its C terminal. To prepare anti TNFR1 Fab QD conjugates, a solution of 0.7 nM anti TNFR1—Fab-biotin in 1 ml of DMEM was added drop-wise to 1 ml of 2 nM QD 605-streptavidin conjugate. Cell monolayers (50% confluent) previously serum starved for 1 hr were treated with 3OC12 HSL or left untreated and incubated with […] of the final anti TNFR1-Fab-QD solution at 25° C. for 2 min. The cells were then washed twice with PBS at 25° C., placed in serum-free medium, and loaded for imaging. For single-FcRγIIA tracking, Fc fragment was obtained by papain digestion of an anti-BSA IgG (Sigma Aldrich). Fc-QD conjugate was produced as described before. Cos-1 cells were transiently transfected with Fcγ RIIA plasmid, 24 hrs later, cells were stimulated with 3OC12 HSL or left untreated and incubated with […] of the final Fc-QD solution at 25° C. for 2 min. Quantum dot-labeled cells were imaged in TIRF mode. The fluorescence was excited at 488 nm and gated by a band-pass filter (575-640, Carl Zeiss). The excitation power was about 2 mW measured after the objective. Movies of 400 frames were acquired for each sample at a full-frame rate of 17 Hz. Individual trajectories were constructed by Utrack written in Matlab. Diffusion coefficient and plot area were calculated by customized programs written with Matlab. For motion pattern determination by MSD-t analysis 5: linear, simple Brownian diffusion; open-up parabolic, directed diffusion; open-down parabolic, restricted diffusion; and near zero, stationary.

[7] = system: monocytic RAW264.7; assay: Annexin V/PI apoptosis detection, RAW264.7; format: cell-based
Procedure: as §1

[8] = system: thymoma line EL4; assay: Annexin V/PI apoptosis detection, EL4; format: cell-based
Procedure: as §1

[9] = biological target: T1, TNFR1 (Mus musculus, UniProt P25118); assay: Quantum dot-based single particle tracking, TNFR1; format: cell-based
T1 construct: To track individual TNFR1 on the cell membrane; endogenous in cells
T1 sequence (P25118 30-454): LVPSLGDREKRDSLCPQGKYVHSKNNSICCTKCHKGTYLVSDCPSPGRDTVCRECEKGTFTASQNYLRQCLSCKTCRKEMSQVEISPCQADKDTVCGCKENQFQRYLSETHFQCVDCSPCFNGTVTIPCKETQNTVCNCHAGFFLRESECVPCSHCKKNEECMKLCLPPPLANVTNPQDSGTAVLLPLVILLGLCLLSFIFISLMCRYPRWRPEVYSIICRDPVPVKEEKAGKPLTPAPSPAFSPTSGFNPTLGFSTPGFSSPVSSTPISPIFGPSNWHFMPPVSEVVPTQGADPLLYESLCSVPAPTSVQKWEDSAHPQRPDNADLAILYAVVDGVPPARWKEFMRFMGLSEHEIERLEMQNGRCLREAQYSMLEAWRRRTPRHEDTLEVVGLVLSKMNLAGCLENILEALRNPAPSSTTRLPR
Procedure: as §2

What does the source list for `CCCCCCCCCC(=O)CC(=O)N[C@H]1CCOC1=O` [3OC12 HSL, N-(3-oxo-dodecanoyl) homoserine lactone]?
sensitivity to 3OC12 HSL [1]: relatively resistant; ZAP70 phosphorylation [2]: minimally affected; EGFR dimerization [3]: increased the dimerization; retention by coated lipid components [4]: only lipid components containing cholesterol, sphingomyelin and DOPC were able to efficiently retain; TNFR1 associated with lipid rafts [5]: reduced; Fcγ RIIA motion pattern [6]: higher percentage of Fcγ RIIA belonged to the simple and directed motions; Fcγ RIIA diffusion coefficient ([6]; without 3OC12 HSL 0.1056): 0.1564+/−0.006; area covered by Fcγ RIIA motion tracks ([6]; without 3OC12 HSL 0.6467): 0.9310+/−0.045; sensitivity to 3OC12 HSL [7]: sensitive; sensitivity to 3OC12 HSL [8]: sensitive; TNFR1 diffusion coefficient [9]: significantly increased; TNFR1 x-y surface area coverage [9]: high x-y surface area coverage; TNFR1 motion pattern ([9]; MSD analysis): more likely to fall into the simple mode of motion
